In ChEMBL document CHEMBL1201862, “PubChem BioAssay data set” (2004):
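The compound was tested at five concentrations on cells cultured in 96-well plates, with a 48-hour exposure period. Abbreviation: GI50, concentration required for 50% inhibition of growth.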 Activity calls are given as the source filed them. Rule as the data show it: active = GI50 up to about 1.1 µM and inactive = higher.

Columns and labels:
Experiment in all cases: NCI tumour cell line growth inhibition, 48 h
[1] = test system: DLD-1
[2] = test system: LOX IMVI
[3] = test system: OVCAR-8
[4] = test system: RXF 393
[5] = test system: SNB-75
[6] = test system: SR
[7] = test system: TK-10
[8] = test system: UO-31
[9] = test system: MCF7
[10] = test system: NCI-H226
[11] = test system: NCI/ADR-RES
[12] = test system: 786-0

Measured: GI50

CC(C)(C)CI
inactive: [1] 34.2 µM | [2] 17.3 µM | [3] > 10 µM | [4] 18.4 µM | [5] 26.4 µM | [6] 25.4 µM | [7] > 100 µM | [8] > 10 µM

O=C1C=C[C@@H](COC2OC(CO)C(O)C(O)C2O)O1 (stereo not given in full)
inactive: [1] 3.35 µM | [2] 3.88 µM | [9] 4.46 µM | [10] 35.7 µM | [11] 4.38 µM | [3] 14.2 µM | [5] 14.9 µM | [8] 50.2 µM

O=C(O)c1ccc([Se][Se]c2ccc(C(=O)O)cc2)cc1
inactive: [12] 34 µM | [1] 34 µM | [10] 26.8 µM | [3] 28.6 µM | [4] 21.2 µM | [5] 33.9 µM | [6] > 10 µM | [7] 22.7 µM | [8] 29.9 µM

CC1(C)CCCC2(C)[C@@H]1CC[C@]13C[C@](C)(CC[C@@H]21)[C@@H]3CO (stereo not given in full)
inactive: [1] > 100 µM | [2] > 100 µM | [10] > 100 µM | [4] 98.9 µM | [5] 46.7 µM | [6] > 10 µM | [7] > 100 µM | [8] > 100 µM

CC(O)C(O)C(N)CC=O (stereo not given)
inactive: [1] > 500 µM | [2] 499 µM | [9] > 500 µM | [10] > 500 µM | [11] > 500 µM | [3] > 500 µM | [4] > 500 µM | [5] > 500 µM | [8] > 500 µM

O=C(CCl)NC(Cc1ccc(F)cc1)C(=O)O (stereo not given)
inactive: [1] > 88.9 µM | [2] > 100 µM | [9] > 100 µM | [10] > 100 µM | [11] > 100 µM | [3] > 100 µM | [5] > 100 µM | [8] > 100 µM
